# According to patent US20190083497A1, “MODULATION OF BLOOD BRAIN BARRIER PERMEABILITY” (Cornell University, priority 2008, published 2019):
# Legend:
# Assay type in all cases: in vivo, mouse
# EAE-induced mice = assay: EAE induction and scoring (MOG35-55/CFA + pertussis toxin); conditions: wild type mice; 2 mg/kg (1 mg/kg s.c. and 1 mg/kg i.p.) in 45% DMSO, 1 day prior to and daily for 30 days; vs DMSO alone
# Method: C57BL/6 and tcrα^−/− mice on the C57BL/6 background were purchased from The Jackson Laboratories. Mice were bred and housed under specific pathogen-free conditions at Cornell University or the University of Turku. For adenosine receptor blockade experiments, mice were given drinking water supplemented with 0.6 g/L of caffeine (Sigma) or 2 mg/kg SCH58261 (1 mg/kg s.c. and 1 mg/kg i.p.) in DMSO (45% vol. in PBS) or 45% DMSO alone starting 1 day before EAE induction and continuing throughout the experiment. All procedures performed on mice were approved by the relevant animal review committee.
# EAE was induced by subjecting mice to the myelin oligodendrocyte glycoprotein (“MOG”) EAE-inducing regimen as described in Swanborg, “Experimental Autoimmune Encephalomyelitis in Rodents as a Model for Human Demyelinating Disease,” Clin. Immunol. […] Briefly, a 1:1 emulsion of MOG35-55 peptide (3 mg/ml in PBS) (Invitrogen) and complete Freund's adjuvant (CFA, Sigma) was injected subcutaneously (50 μl) into each flank. Pertussis toxin (PTX, 20 ng) (Biological Laboratories Inc.) was given intravenously (200 μl in PBS) at the time of immunization and again 2 days later. Mice were scored daily for EAE based on disease symptom severity; 0=no disease, 0.5 -1=weak/limp tail, 2=limp tail and partial hind limb paralysis, 3=total hind limb paralysis, 4=both hind limb and fore limb paralysis, 5=death. Mice with a score of 4 were euthanized.
# Wild type mice were given 1 mg/kg of SCH58261 in DMSO or DMSO alone both i.p. and s.c. (for a total of 2 mg/kg) 1 day prior to EAE induction and daily for 30 days throughout the course of the experiment (FIG. 7C).
# [1] = test system: CNS lymphocyte infiltration; assay: CD4+ infiltrating lymphocytes in brain and spinal cord after EAE induction (immunohistochemistry); conditions: wild type mice, day 15 post-EAE induction; 2 mg/kg daily; vs DMSO treated mice
# Method: FIGS. 7A-7D show adenosine receptor blockade protects mice from EAE development. […] Results are from one experiment (n=5 mice per group). […] Samples were run in triplicate; error bars represent the standard error of the mean. […] Eight anatomically similar fields per brain and 4 fields per spinal cord per mouse were analyzed at 10×magnification (n=4 mice). Error bars represent the standard error of the mean.
# Anesthetized mice were perfused with PBS, and brains, spleens, and spinal cords were isolated and snap frozen in Tissue Tek-OCT medium. Five μm sections (brains in a sagittal orientation) were affixed to Supefrost/Plus slides (Fisher), fixed in acetone, and stored at −80° C. […]
# (§1) As CD73 catalyzes the breakdown of AMP to adenosine and ARs are expressed in the CNS (Tsutsui et al., “A1 Adenosine Receptor Upregulation and Activation Attenuates Neuroinflammation and Demyelination in a Model of Multiple Sclerosis,” J. Neurosci. 24:1521-1529 (2004)); Rosi et al., The Influence of Brain Inflammation Upon Neuronal Adenosine A2B Receptors,” J. Neurochem. 86:220-227 (2003), which are hereby incorporated by reference in their entirety), it was next determined if AR signaling is important during EAE progression. […] Since CD73 is highly expressed on the choroid plexus (FIG. 6C), it was next determined if ARs are also expressed on the choroid plexus. […]
# ICAM-1 = ICAM-1 expression at the choroid plexus after EAE induction (immunohistochemistry); conditions: wild type mice, day 15 post-EAE induction; 2 mg/kg daily; vs DMSO
# Method: Mice were treated with the A2a adenosine receptor antagonist SCH58261 2 mg/kg (1 mg/kg given s.c. and 1 mg/kg given i.p.) in DMSO (n=4 mice/group) or DMSO alone (n=5 mice/group) 1 day prior to and daily up to day 30 following EAE induction. […] Frozen tissue sections from day 15 post-EAE induction in SCH58261 and DMSO treated mice were examined for ICAM-1 expression at the choroid plexus. WT treated DMSO (left) or SCH58261 (right) and stained for ICAM-1 (red staining, white arrows) and DAPI (blue, nuclei) at 40× magnification. Images are from 4 separate mice.
# Anesthetized mice were perfused with PBS, and brains, spleens, and spinal cords were isolated and snap frozen in Tissue Tek-OCT medium. […]
# as §1
# blood brain barrier = assay: FITC-Dextran extravasation through the brain endothelium; conditions: wild type mice (FIG. 16)
# Method: In order to examine the effects of caffeine, a general adenosine receptor antagonist, on blood brain barrier permeability, mice were fed caffeine for several days and then injected with FITC Dextran, commonly used to assess endothelial permeability.
# More particularly, mice were fed 0.6 g/l caffeine (Sigma, St. Louis, Mo.) in water or regular water ad lib for five days. Mice were injected IP with FITC Dextran (10,000 MW, Molecular Probes, Eugene, Oreg.) and after 30 minutes mice were perfused with ice cold PBS via the left ventricle. Brains were removed and snap frozen in OCT (Tissue Tek, Torrance, Calif.) and stored at −80° C. until sectioning. Tissue sections (5 μm) were stained with hematoxylin for light microscopy and with DAPI for a fluorescent counterstain.
smiles,measurement,setting,value
Nc1nc2c(cnn2CCc2ccccc2)c2nc(-c3ccco3)nn12 [SCH58261],EAE development (mean EAE score),EAE-induced mice,dramatically protected against EAE development
same,frequency of CD4 lymphocytes in the brain and spinal cord,[1],significantly lower frequency of CD4 lymphocytes in the brain and spinal cord
same,ICAM-1 up regulation on the choroid plexus,ICAM-1,prevented the up regulation of ICAM-1
same,FITC-Dextran extravasation across the blood brain barrier,blood brain barrier,inhibit FITC-Dextran extravasation
